Assay results reported in patent US20210261570A1, “ANTIBIOTIC RESISTANCE BREAKERS” (KING'S COLLEGE LONDON, priority 2017, published 2021).
Converted amounts (≈) assume the structure as drawn. “And” between values parts separate entries of the source, which are not always exact repeats. Identical values can stand only once. Like-named read-outs stand apart in the source and are kept apart here.

Columns and labels:
[1] = system: Neisseria gonorrhoeae strains; type: cell-based
Excerpt: Untreated controls and blank wells were included.

[2] = system: Staphylococcus aureus ATCC29213; assay: Murine model of thigh infection (neutropenic ICR mice); conditions: for decrease of thigh bacterial burden compared to vehicle group: 8 h and 14 h post infection
Excerpt: 40 Male mice used in these study were supplied by Charles River UK and were specific pathogen free. The strain of mouse used was Hsd:ICR (CD-1®), which is a well characterized outbred strain. Mice were 11-15 g on receipt at Evotec's facility and were allowed to acclimatize for minimum of 7 days prior to infection. Mice were approximately 28 g at the start of the study. Mice were housed in sterile individual ventilated cages exposing animals at all times to HEPA filtered sterile air. Mice had free access to food and water (sterile) and had sterile aspen chip bedding. The room temperature was 22° C.±1° C., with a relative humidity of 50-60% and maximum background noise of 56 dB. Mice were exposed to 12 hour light/dark cycles with dawn/dusk phases.
All mice were rendered neutropenic by immunosuppression with cyclophosphamide at 150 mg/kg 4 days before infection and then 100 mg/kg 1 day before infection administered by intraperitoneal injection. The immunosuppression regime leads to neutropenia starting 24 hours post administration of the first injection, which continues throughout the study. Mice were infected approximately 24 hours after the second dose of immunosuppressive agent.
Staphylococcus aureus ATCC29213 was used for the study.
Whilst still under anaesthesia mice were administered a single dose of buprenorphine (0.03 mg/kg) subcutaneously for pain relief.
Test articles and comparator were prepared in stock solutions at 10× concentration as described in Table 20. The stock solutions were prepared in aliquots (1 aliquot per time of dosing) and frozen at −20° C. The solutions were thawed and then diluted in water just before dosing to obtain the appropriate concentration of 5 mg/mL or 2 mg/mL for oral administration at 10 mL/kg of the dose of 50 mg/kg or 20 mg/kg respectively (Table 20). 10% DMSO in water was used as the vehicle
After sacrifice of animal, both posterior thighs were removed, weighed, then homogenised in 2 mL PBS using a Precellys bead beater and the homogenates individually quantitatively cultured on CLED agar to determine the bacterial burdens.
The data from the culture burdens were analysed using appropriate non-parametric statistical models (Kruskal-Wallis using Conover-Inman to make all pairwise comparisons between groups) with StatsDirect software v. 2.7.8., and compared to pre-treatment and vehicle controls.

C[C@H]1COc2c(N3CC[C@@H](Nc4ncccn4)C3)c(F)cc3c(=O)c(C(=O)O)cn1c23 [KSN-82-L22]
MIC ([1]; strain FDA-CDC AR-BANK#0193, resistance CIP-S PEN-R TET-R): ≤0.03125 µg/mL | MIC ([1]; strain FDA-CDC AR-BANK#0194, resistance CRO-NS CIP-S PEN-I TET-R): ≤0.03125 µg/mL | MIC ([1]; strain FDA-CDC AR-BANK#0195, resistance CIP-R PEN-I TET-R): 2 µg/mL (≈ 4.7 µM) | MIC ([1]; strain FDA-CDC AR-BANK#0196, resistance CIP-R PEN-R TET-R): 2 µg/mL (≈ 4.7 µM) | MIC ([1]; strain FDA-CDC AR-BANK#0197, resistance CIP-R PEN-I TET-I): 2 µg/mL (≈ 4.7 µM) | MIC ([1]; strain FDA-CDC AR-BANK#0198, resistance CIP-R PEN-R TET-R): 2 µg/mL (≈ 4.7 µM) | MIC ([1]; strain FDA-CDC AR-BANK#0199, resistance CIP-S PEN-R TET-R): ≤0.03125 µg/mL | MIC ([1]; strain FDA-CDC AR-BANK#0200, resistance CIP-R PEN-R TET-R): 2 µg/mL (≈ 4.7 µM) | MIC ([1]; strain FDA-CDC AR-BANK#0201, resistance CIP-R PEN-R TET-R): 2 µg/mL (≈ 4.7 µM) | MIC ([1]; strain FDA-CDC AR-BANK#0202, resistance CIP-S PEN-S TET-I): ≤0.03125 µg/mL | MIC ([1]; strain FDA-CDC AR-BANK#0203, resistance CIP-R PEN-R TET-R): 2 µg/mL (≈ 4.7 µM) | MIC ([1]; strain FDA-CDC AR-BANK#0204, resistance CIP-R PEN-I TET-R): 2 µg/mL (≈ 4.7 µM) | MIC ([1]; strain FDA-CDC AR-BANK#0205, resistance CIP-R PEN-R TET-R): 2 µg/mL (≈ 4.7 µM) | MIC ([1]; strain FDA-CDC AR-BANK#0206, resistance CIP-R PEN-R TET-R): 2 µg/mL (≈ 4.7 µM) | MIC ([1]; strain FDA-CDC AR-BANK#0207, resistance CIP-R PEN-R TET-R): 2 µg/mL (≈ 4.7 µM) | MIC ([1]; strain FDA-CDC AR-BANK#0208, resistance CIP-R PEN-I TET-R): 2 µg/mL (≈ 4.7 µM) | MIC ([1]; strain FDA-CDC AR-BANK#0209, resistance CIP-R PEN-I TET-R): 2 µg/mL (≈ 4.7 µM) | MIC ([1]; strain FDA-CDC AR-BANK#0210, resistance CIP-R PEN-I TET-I): 2 µg/mL (≈ 4.7 µM) | MIC ([1]; strain FDA-CDC AR-BANK#0211, resistance CIP-R PEN-R TET-R): 2 µg/mL (≈ 4.7 µM) | MIC ([1]; strain FDA-CDC AR-BANK#0212, resistance CIP-R PEN-I TET-R): 2 µg/mL (≈ 4.7 µM) | MIC ([1]; strain FDA-CDC AR-BANK#0213, resistance CIP-R PEN-I TET-I): 1 µg/mL (≈ 2.35 µM) | MIC ([1]; strain FDA-CDC AR-BANK#0214, resistance CIP-R PEN-R TET-R): 2 µg/mL (≈ 4.7 µM) | MIC ([1]; strain NCTC 13817, resistance PEN-R TET-I): 0.5 µg/mL (≈ 1.18 µM) | MIC ([1]; strain NCTC 13818, resistance CIP-R OFX-R PEN-R TET-R): 2 µg/mL (≈ 4.7 µM) | MIC ([1]; strain NCTC 13819, resistance FEP-NS CAZ-NS CIP-R OFX-R PEN-R TET-I): 2 µg/mL (≈ 4.7 µM) | MIC ([1]; strain NCTC 13820, resistance FEP-NS CFM-NS CAZ-NS CRO-NS CIP-R OFX-R PEN-R TET-R): 2 µg/mL (≈ 4.7 µM) | MIC ([1]; strain NCTC 13821, resistance FEP-NS CFM-NS CAZ-NS CRO-NS CIP-R PEN-I TET-I): 2 µg/mL (≈ 4.7 µM) | MIC ([1]; strain NCTC 13822, resistance FEP-NS CFM-NS CAZ-NS CIP-R OFX-R PEN-R TET-I): 2 µg/mL (≈ 4.7 µM) | MIC ([1]; strain TCDC-NG08107, resistance PEN-R CFM-R CPD-R CIP-R): 2 µg/mL (≈ 4.7 µM) | Bodyweight raw data, individual mouse ([2]; 20 mg/kg group, day 0 (day of infection)): 29.4 and 27.2 and 30.5 and 29.7 | Bodyweight raw data, individual mouse ([2]; 20 mg/kg group, day 1 post infection): 29.3 and 29.5 and 27.5 and 31.3 and 31.0 | Bodyweight raw data, individual mouse ([2]; 20 mg/kg group, day −1 post infection (before treatment)): 29.1 and 29.2 and 27.3 and 30.2 and 29.8 | Bodyweight raw data, individual mouse ([2]; 20 mg/kg group, day −4 post infection (before treatment)): 28.7 and 30.2 and 26.9 and 29.8 and 29.7 | decrease of thigh bacterial burden compared to vehicle group ([2]; 20 mg/kg/dose oral at 2 h, 18 h post infection): 5 log10 CFU/g and > 5 log10 CFU/g | Bodyweight raw data, individual mouse ([2]; 50 mg/kg group, day 0 (day of infection)): 28.2 and 27.8 and 29.3 and 26.6 and 25.6 | Bodyweight raw data, individual mouse ([2]; 50 mg/kg group, day 1 post infection): 29 and 28.1 and 30.1 and 26.1 and 26.4 | Bodyweight raw data, individual mouse ([2]; 50 mg/kg group, day −1 post infection (before treatment)): 27.9 and 29.5 and 29.1 and 26.5 and 26.8 | Bodyweight raw data, individual mouse ([2]; 50 mg/kg group, day −4 post infection (before treatment)): 27.8 and 29.2 and 28.9 and 27.0 and 27.9 | decrease of thigh bacterial burden compared to vehicle group ([2]; 50 mg/kg/dose oral at 2 h, 18 h post infection): > 5 log10 CFU/g | thigh bacterial burden, result in words ([2]; 20 and 50 mg/kg, 18 h post infection): significantly decreased bacterial burden | body weights following infection ([2]; infected neutropenic mice, treated groups): slightly increased | Statistic analysis of thigh burden, P versus ML-83-009 20 mg/kg ([2]; substance at 20 mg/kg): P < 0.0001 | Statistic analysis of thigh burden, P versus ML-83-009 50 mg/kg ([2]; substance at 20 mg/kg): P = 0.0002 | Statistic analysis of thigh burden, P versus Pre treatment ([2]; substance at 20 mg/kg): P = 0.0139 | Statistic analysis of thigh burden, P versus Vehicle ([2]; substance at 20 mg/kg): P < 0.0001 | Statistic analysis of thigh burden, P versus ML-83-009 20 mg/kg ([2]; substance at 50 mg/kg): P < 0.0001 | Statistic analysis of thigh burden, P versus ML-83-009 50 mg/kg ([2]; substance at 50 mg/kg): P < 0.0001 | Statistic analysis of thigh burden, P versus Pre treatment ([2]; substance at 50 mg/kg): P = 0.0026 | Statistic analysis of thigh burden, P versus Vehicle ([2]; substance at 50 mg/kg): P < 0.0001
